What is called IC50 is the concentration that gives 50% inhibition. A higher IC50 goes with weaker potency.

The values below come from ChEMBL document CHEMBL5727813, “Inhibitors of lysine gingipain” (2020).

The test is described as follows: Inhibition of Lysine Gingipain: The capacities of compounds of the present invention to inhibit the activity of lysine gingipain were measured in a fluorogenic assay similar to those described in Barret Biochemical Journal. 1980, 187(3), 909. The specific assay conditions were as follows. Buffer: pH=7.5, 100 mM Tris-HCl, 75 mM NaCl, 2.5 mM CaCl2, 10 mM cysteine, 1% DMSO after all additions. Protein: 0.1 nM Kgp, isolated from culture of Porphyromonas gingivalis, as described in Pike et al. J. Biol. Chem. 1994, 269(1), 406, and Potempa and Nguyen. Current Protocols in Protein Scienc. 2007, 21.20.1-21.20.27. Fluorogenic substrate: 10 uM Z-His-Glu-Lys-MCA. Time=90 minutes. Temperature=37° C. Each compound: 10 concentrations, starting at either 100 uM or 100 nM, with lower concentrations generated by serial 3-fold dilutions. By testing a range of concentrations for each compound, the concentration required to inhibit the activity of lysine gingipain by 50% (the “IC50”) was determined. Under the described assay conditions, signal-to-noise was excellent, and Z factor was greater than 0.6.

The molecule `NCCCC[C@H](NC(=O)C1CCCC1)C(=O)c1ccccn1` yielded an IC50 greater than 250 nM.
